Assay results from patent publication US9737535B2, “Methods for treating cancer using TOR kinase inhibitor combination therapy comprising administering substituted pyrazino[2,3-b]pyrazines” (Signal Pharmaceuticals, LLC, priority 2014, dated 2017).

What was measured:
Experiment in all cases: Anti-proliferation assay (ATPLite), Chalice synergy score
Format in all cases: cell-based
BT-549 = details: Compound 1 in combination with the named second active agent, 72 h, mean of n = 3 experiments in triplicate
From the text: (§1) Cells were thawed from a liquid nitrogen preserved state.
(§2) The calculation for synergy score is provided below.
(§3) If T≧V0:100*[1−(T−V0)/(V−V0)]

MCF7 = details: Compound 1 in combination with second active agent, mean self-cross + 2σ threshold 3.07
From the text: as §1, §2, §3

HCC-1428 = details: Compound 1 in combination with the named second active agent, 72 h, mean of n = 3 experiments in triplicate
From the text: as §1, §2, §3

MDA-MB-468 = details: Compound 1 in combination with second active agent, mean self-cross + 2σ threshold 4.66
From the text: as §1, §2, §3

HCC-1806 = details: Compound 1 in combination with the named second active agent, 72 h, mean of n = 3 experiments in triplicate
From the text: as §1, §2, §3

MDA-MB-436 = details: Compound 1 in combination with second active agent, mean self-cross + 2σ threshold 1.91
From the text: as §1, §2, §3

Hs-578-T = details: Compound 1 in combination with second active agent, mean self-cross + 2σ threshold 4.09
From the text: as §1, §2, §3

HCC-1937 = details: Compound 1 in combination with the named second active agent, 72 h, mean of n = 3 experiments in triplicate
From the text: as §1, §2, §3

HCC70 = details: Compound 1 in combination with second active agent; HCC-70; mean self-cross + 2σ threshold 3.45
From the text: as §1, §2, §3

MDA-MB-231 = details: Compound 1 in combination with second active agent, mean self-cross + 2σ threshold 2.61
From the text: as §1, §2, §3

BT-474 = details: Compound 1 in combination with the named second active agent, 72 h, mean of n = 3 experiments in triplicate
From the text: as §1, §2, §3

MDA-MB-157 = details: Compound 1 in combination with second active agent, mean self-cross + 2σ threshold 4.68
From the text: as §1, §2, §3

BT-20 = test system: BT-20; set-up: scale not given here; details: Compound 1 in combination with the named second active agent, 72 h, mean of n = 3 experiments in triplicate
From the text: as §1, §2, §3

HCC-1187 = test system: HCC-1187; set-up: scale not given here; details: Compound 1 in combination with the named second active agent, 72 h, mean of n = 3 experiments in triplicate
From the text: as §1, §2, §3

HCC-1500 = test system: HCC-1500; set-up: scale not given here; details: Compound 1 in combination with the named second active agent, 72 h, mean of n = 3 experiments in triplicate
From the text: as §1, §2, §3

Structure (SMILES)	Synergy score (BT-549)	Synergy score (MCF7)	Synergy score (HCC-1428)	Synergy score (MDA-MB-468)	Synergy score (HCC-1806)	Synergy score (MDA-MB-436)	Synergy score (Hs-578-T)	Synergy score (HCC-1937)	Synergy score (HCC70)	Synergy score (MDA-MB-231)	Synergy score (BT-474)	Synergy score (MDA-MB-157)	Synergy score (BT-20)	Synergy score (HCC-1187)	Synergy score (HCC-1500)
Clc1ccc(C2(c3ccc(-c4cn[nH]c4)cc3)CCNCC2)cc1 [AT7867]	4.50	1.39	1.42	3.60	2.04	1.95	5.24	1.72	4.28	3.58	1.83	3.19	3.07	4.19	2.00
NC(=O)Nc1cc(-c2cccc(F)c2)sc1C(=O)N[C@H]1CCCNC1 [AZD7762]	0.39	0.08	2.58	0.94	0.32	0.93	8.16	4.44	4.61	3.66	1.21	3.09	3.92	1.65	3.02
COc1ccc(-c2ccc3c(N4CCOC[C@@H]4C)nc(N4CCOC[C@@H]4C)nc3n2)cc1CO [AZD8055]	0.98	1.22	1.79	1.69	1.47	0.15	1.55	2.24	1.13	0.61	1.53	1.04	0.70	2.00	2.98
COc1ccc(-c2cc3nccn3c(Nc3ncccc3C(N)=O)n2)cc1OC.Cl [BAY61-3606 Hydrochloride]	2.31	1.49	1.21	5.47	0.48	0.94	5.49	0.18	3.93	0.79	0.04	1.49	0.20	3.17	0.02
COc1c(C)cnc(Cn2cnc3c(Cl)nc(N)nc32)c1C [BIIB021]	0.12	0.15	4.02	5.46	1.01	0.33	1.19	1.44	9.58	1.22	2.83	3.94	3.71	0.45	1.11
NC(=O)[C@@H](CCC(F)(F)F)N(Cc1ccc(-c2ncon2)cc1F)S(=O)(=O)c1ccc(Cl)cc1 [BMS-708163]	0.34	0.16	0.26	0.98	0.89	0.86	1.36	0.96	1.24	1.45	0.19	0.63	0.20	3.06	0.34
C[C@@]1(C(=O)Nc2ccc(F)nc2)CCCN1c1nc(Nc2cc(C3CC3)n[nH]2)c2cccn2n1 [BMS-754807]	2.14	5.31	4.09	2.25	3.04	2.00	3.32	0.64	2.08	2.50	1.30	9.46	2.08	9.68	3.99
Cc1ccc(S(=O)(=O)/C=C/C#N)cc1 [Bay 11-7082]	1.16	0.02	1.53	1.89	1.01	1.24	1.51	1.23	1.13	0.61	0.93	3.65	0.00	0.51	0.52
O=C(O)c1ccc2c(c1)nc(Nc1cccc(Cl)c1)c1ccncc12 [CX-4945]	3.41	2.26	3.28	6.73	4.19	1.70	5.97	7.92	10.60	2.30	4.91	4.55	6.09	7.53	2.93
CO[C@H]1/C=C\C=C(/C)C(=O)NC2=CC(=O)C(NCCN(C)C)=C(C[C@@H](C)C[C@H](OC)[C@H](O)[C@@H](C)/C=C(\C)[C@@H]1OC(N)=O)C2=O [Compound 17-DMAG]	0.01	0.13	2.46	7.72	1.40	0.61	0.45	1.70	11.10	1.00	2.24	6.09	5.94	0.33	0.99
C[C@]12CC[C@@H]3c4ccc(O)cc4C[C@@H](CCCCCCCCC[S+]([O-])CCCC(F)(F)C(F)(F)F)[C@H]3[C@@H]1CC[C@@H]2O (stereo partly drawn) [Fulvestrant]	1.25	2.45	1.09	0.41	1.30	0.74	2.10	1.98	1.50	0.77	1.37	0.42	1.39	2.16	5.15
OCCn1cc(-c2ccc3c(c2)CC/C3=N\O)c(-c2ccncc2)n1 [GDC-0879]	0.08	0.11	0.13	0.44	0.47	0.13	0.75	0.29	0.43	0.54	0.46	0.69	0.00	0.85	0.91
CS(=O)(=O)N1CCN(Cc2cc3nc(-c4cccc5[nH]ncc45)nc(N4CCOCC4)c3s2)CC1 [GDC-0941]	4.39	5.22	1.90	3.21	6.16	1.25	7.23	4.39	6.42	1.76	5.04	5.60	6.56	5.18	1.45
CN(C)CCCn1cc(C2=C(c3c[nH]c4ccccc34)C(=O)NC2=O)c2ccccc21 [GF 109203X]	1.73	0.35	0.47	10.60	0.43	2.60	2.35	3.03	4.47	2.28	0.47	6.19	1.04	4.47	3.41
CCc1cc(Nc2nccc(-c3c(-c4ccc(OC)c(C(=O)Nc5c(F)cccc5F)c4)nc4ccccn34)n2)c(OC)cc1N1CCC(N2CCN(S(C)(=O)=O)CC2)CC1 [GSK1904529A]	0.81	2.77	0.16	2.44	1.00	1.22	0.97	1.86	2.15	0.09	1.09	0.82	1.07	1.68	1.63
